Assay results as given in ChEMBL document CHEMBL3407403, “Synthetic modification of hydroxychavicol by Mannich reaction and alkyne-azide cycloaddition derivatives depicting cytotoxic potential” (Eur J Med Chem, 2015).
Activity calls are given as the source filed them. The rule behind the calls is not given here.

How the values were obtained:
HL-60 [1] = experiment: Induction of apoptosis in human HL60 cells assessed as apoptotic bodies formation after 24 hrs by Hoechst 33342-staining based fluorescence microscopy; type: functional, cell-based
MCF7 [2] = experiment: Growth inhibition of human MCF7 cells at 30 uM after 72 hrs by MTT assay; type: functional; details: MCF7, 72 h, read-out: GI
HL-60 [3] = experiment: Induction of apoptosis in human HL60 cells assessed as effect on morphology at 5 to 20 uM after 24 hrs by phase-contrast microscopy; type: functional, cell-based
[4] = Cell cycle arrest in human HL60 cells assessed as accumulation at G2 phase at 10 uM after 24 hrs by propidium iodide-staining based flow cytometry (reference value: 1%); type: functional; details: HL-60
SK-N-SH [5] = experiment: Growth inhibition of human SK-N-SH cells after 72 hrs by MTT assay; type: functional, cell-based
HL-60 [6] = experiment: Reduction in mitochondrial membrane potential in human HL60 cells at 5 uM after 24 hrs by Rh-123-staining based flow cytometry (reference value: 7%); type: functional; parameters: scale not given: the % may be the effect or the level left
[7] = Cell cycle arrest in human HL60 cells assessed as apoptotic cells at 20 uM after 24 hrs by propidium iodide-staining based flow cytometry (reference value: 3%); type: functional; details: HL-60
[8] = Cell cycle arrest in human HL60 cells assessed as apoptotic cells at 10 uM after 24 hrs by propidium iodide-staining based flow cytometry (reference value: 3%); type: functional; details: HL-60
[9] = Cell cycle arrest in human HL60 cells assessed as accumulation at G1 phase at 10 uM after 24 hrs by propidium iodide-staining based flow cytometry (reference value: 36%); type: functional; details: HL-60
[10] = Growth inhibition of human MIAPaCa2 cells at 30 uM after 72 hrs by MTT assay; type: functional; details: MIA PaCa-2, 72 h, read-out: GI
HL-60 [11] = experiment: Reduction in mitochondrial membrane potential in human HL60 cells at 15 uM after 24 hrs by Rh-123-staining based flow cytometry (reference value: 7%); type: functional; parameters: scale not given: the % may be the effect or the level left
[12] = Cell cycle arrest in human HL60 cells assessed as accumulation at G2 phase at 5 uM after 24 hrs by propidium iodide-staining based flow cytometry (reference value: 1%); type: functional; details: HL-60
[13] = Cell cycle arrest in human HL60 cells assessed as accumulation at G1 phase at 20 uM after 24 hrs by propidium iodide-staining based flow cytometry (reference value: 36%); type: functional; details: HL-60
[14] = Cell cycle arrest in human HL60 cells assessed as accumulation at S phase at 20 uM after 24 hrs by propidium iodide-staining based flow cytometry (reference value: […]); type: functional; details: HL-60
[15] = Growth inhibition of human MIAPaCa2 cells at 50 uM after 72 hrs by MTT assay; type: functional; details: MIA PaCa-2, 72 h, read-out: GI
HL-60 [16] = experiment: Reduction in mitochondrial membrane potential in human HL60 cells at 20 uM after 24 hrs by Rh-123-staining based flow cytometry (reference value: 7%); type: functional; parameters: scale not given: the % may be the effect or the level left
[17] = Cell cycle arrest in human HL60 cells assessed as accumulation at G1 phase at 5 uM after 24 hrs by propidium iodide-staining based flow cytometry (reference value: 36%); type: functional; details: HL-60
[18] = Growth inhibition of human HL60 cells at 50 uM after 72 hrs by MTT assay; type: functional; details: HL-60, 72 h, read-out: GI
MCF7 [19] = experiment: Growth inhibition of human MCF7 cells at 50 uM after 72 hrs by MTT assay; type: functional; details: MCF7, 72 h, read-out: GI
SK-N-SH [20] = experiment: Growth inhibition of human SK-N-SH cells at 30 uM after 72 hrs by MTT assay; type: functional; details: read-out: GI
HepG2 [21] = experiment: Growth inhibition of human HepG2 cells at 50 uM after 72 hrs by MTT assay; type: functional; details: HepG2, 72 h, read-out: GI
[22] = Cell cycle arrest in human HL60 cells assessed as apoptotic cells at 5 uM after 24 hrs by propidium iodide-staining based flow cytometry (reference value: 3%); type: functional; details: HL-60
[23] = Cell cycle arrest in human HL60 cells assessed as accumulation at S phase at 5 uM after 24 hrs by propidium iodide-staining based flow cytometry (reference value: 63%); type: functional; details: HL-60
[24] = Cell cycle arrest in human HL60 cells assessed as accumulation at G1 phase at 15 uM after 24 hrs by propidium iodide-staining based flow cytometry (reference value: 36%); type: functional; details: HL-60
[25] = Growth inhibition of human MIAPaCa2 cells after 72 hrs by MTT assay; type: functional, cell-based; details: MIA PaCa-2, 72 h
[26] = Cell cycle arrest in human HL60 cells assessed as accumulation at S phase at 15 uM after 24 hrs by propidium iodide-staining based flow cytometry (reference value: 63%); type: functional; details: HL-60
HepG2 [27] = experiment: Growth inhibition of human HepG2 cells after 72 hrs by MTT assay; type: functional, cell-based; details: HepG2, 72 h
[28] = Growth inhibition of human HL60 cells at 30 uM after 72 hrs by MTT assay; type: functional; details: HL-60, 72 h, read-out: GI
HepG2 [29] = experiment: Growth inhibition of human HepG2 cells at 30 uM after 72 hrs by MTT assay; type: functional; details: HepG2, 72 h, read-out: GI
[30] = Growth inhibition of human HL60 cells after 24 hrs by MTT assay; type: functional, cell-based; details: HL-60, 24 h
[31] = Growth inhibition of human HL60 cells after 72 hrs by MTT assay; type: functional, cell-based; details: HL-60, 72 h
[32] = Cell cycle arrest in human HL60 cells assessed as accumulation at G2 phase at 20 uM after 24 hrs by propidium iodide-staining based flow cytometry (reference value: […]); type: functional; details: HL-60
SK-N-SH [33] = experiment: Growth inhibition of human SK-N-SH cells at 50 uM after 72 hrs by MTT assay; type: functional; details: read-out: GI
HL-60 [34] = experiment: Reduction in mitochondrial membrane potential in human HL60 cells at 10 uM after 24 hrs by Rh-123-staining based flow cytometry (reference value: 7%); type: functional; parameters: scale not given: the % may be the effect or the level left
[35] = Cell cycle arrest in human HL60 cells assessed as accumulation at G2 phase at 15 uM after 24 hrs by propidium iodide-staining based flow cytometry (reference value: […]); type: functional; details: HL-60
MCF7 [36] = experiment: Growth inhibition of human MCF7 cells after 72 hrs by MTT assay; type: functional, cell-based; details: MCF7, 72 h
[37] = Cell cycle arrest in human HL60 cells assessed as apoptotic cells at 15 uM after 24 hrs by propidium iodide-staining based flow cytometry (reference value: 3%); type: functional; details: HL-60
[38] = Cell cycle arrest in human HL60 cells assessed as accumulation at S phase at 10 uM after 24 hrs by propidium iodide-staining based flow cytometry (reference value: 63%); type: functional; details: HL-60
HL-60 [39] = experiment: Induction of apoptosis in human HL60 cells assessed as apoptotic bodies formation at 5 to 20 uM after 24 hrs by Hoechst 33342-staining based fluorescence microscopy; type: functional, cell-based

SMILES	inhibition of growth at 30 µM (MCF7 [2]) [%]	Activity (HL-60 [3])	Activity [4] [%]	IC50 (SK-N-SH [5]) [µM]	Activity (HL-60 [6]) [%]	Activity [7] [%]	Activity [8] [%]	Activity [9] [%]	inhibition of growth at 30 µM [10] [%]	Activity (HL-60 [11]) [%]	Activity [12] [%]	Activity [13] [%]	Activity [14] [%]	inhibition of growth at 50 µM [15] [%]	Activity (HL-60 [16]) [%]	Activity [17] [%]	inhibition of growth at 50 µM [18] [%]	inhibition of growth at 50 µM (MCF7 [19]) [%]	inhibition of growth at 30 µM (SK-N-SH [20]) [%]	inhibition of growth at 50 µM (HepG2 [21]) [%]	other results
C=CCc1cc(O)c(O)c(CN2CCNCC2)c1	69.2	Active	4	14	38	88	11	59	82.8	45	2	52	44	85.6	46	41	94.4	74.2	65.3	73	Activity (HL-60 [1]): Dose-dependent effect; Activity [22]: 8%; Activity [23]: 57%; Activity [24]: 50%; IC50 [25]: 4 µM; Activity [26]: 39%; IC50 (HepG2 [27]): 20 µM; inhibition of growth at 30 µM [28]: 92.5%; inhibition of growth at 30 µM (HepG2 [29]): 64.2%; IC50 [30]: 12 µM; IC50 [31]: 2 µM; Activity [32]: 4%; inhibition of growth at 50 µM (SK-N-SH [33]): 69.9%; Activity (HL-60 [34]): 44%; Activity [35]: 11%; IC50 (MCF7 [36]): 12 µM; Activity [37]: 27%; Activity [38]: 37%
C=CCc1cc(O)c(O)c(CN2CCN(c3ccccc3O)CC2)c1	77.7	Active	7	11	38	89	12	41	88.7	59	1	51	44	89.9	71	47	93.5	79.7	69.2	82.8	Activity (HL-60 [1]): Dose-dependent effect; Activity [22]: 7%; Activity [23]: 52%; Activity [24]: 21%; IC50 [25]: 3 µM; Activity [26]: 78%; IC50 (HepG2 [27]): 16 µM; inhibition of growth at 30 µM [28]: 90.3%; inhibition of growth at 30 µM (HepG2 [29]): 72.8%; IC50 [30]: 10 µM; IC50 [31]: 1 µM; Activity [32]: 5%; inhibition of growth at 50 µM (SK-N-SH [33]): 79.5%; Activity (HL-60 [34]): 44%; Activity [35]: 1%; IC50 (MCF7 [36]): 9 µM; Activity [37]: 52%; Activity [38]: 52%
C=CCc1ccc(O)c(O)c1 [HYDROXYCHAVICOL]	36.9	Active	9	> 30	17	10	9	37	41.7	26	8	27	67	42.8	42	35	92.4	44.1	34.2	29.3	Activity [22]: 5%; Activity [23]: 57%; Activity [24]: 17%; IC50 [25]: > 30 µM; Activity [26]: 61%; IC50 (HepG2 [27]): > 30 µM; Activity (HL-60 [39]): Active; inhibition of growth at 30 µM [28]: 88.8%; inhibition of growth at 30 µM (HepG2 [29]): 27.2%; IC50 [30]: 50 µM; IC50 [31]: 3 µM; Activity [32]: 6%; inhibition of growth at 50 µM (SK-N-SH [33]): 71.7%; Activity (HL-60 [34]): 22%; Activity [35]: 22%; IC50 (MCF7 [36]): > 30 µM; Activity [37]: 10%; Activity [38]: 54%
